Tests used:
HCV replicon = test: Anti-HCV replicon assay, EC50 (luciferase readout); assay type: cell-based; settings: Hepatitis C virus, 72 h; Huh-7 HCV replicon cells, 3 days incubation, luciferase luminescence
Outline: (§1)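 Huh-7 cells harbouring an HCV replicon (6000/well) incubated 3 days at 37° C with 3-fold serially diluted compound (0.5% DMSO final where used). EC50 from luciferase luminescence of lysed cells; CC50 from CellTiter-Glo luminescence in parallel plates.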

[1] = CC50 assay in the anti-HCV replicon assay (CellTiter-Glo); assay type: cell-based, human; settings: human, Huh-7 hepatoma cells harbouring an HCV replicon; Huh-7 HCV replicon cells, 3 days incubation, CellTiter-Glo luminescence
Outline: as §1

Structure (SMILES)	EC50 (HCV replicon) [µM]	CC50 at 3 days [1] [µM]
Nc1nc(OCCF)c2cc(-c3cccc(O)c3)ccc2n1 [Example 210, 3-[2-Amino-4-(2-fluoro-ethoxy)-quinazolin-6-yl]-phenol]	1 to 10	> 20
Nc1nc(OCCF)c2cc(-c3ccc(C(=O)NC4CC4)cc3)ccc2n1 [Example 211, 4-[2-Amino-4-(2-fluoro-ethoxy)-quinazolin-6-yl]-N-cyclopropyl-benzamide]	0.3 to 1	> 20
CNC(=O)c1ccc(-c2ccc3nc(N)nc(OCCF)c3c2)cc1 [Example 212, 4-[2-Amino-4-(2-fluoro-ethoxy)-quinazolin-6-yl]-N-methyl-benzamide]	1 to 10	> 20
Nc1nc(OC[C@@H]2CCCO2)c2cc(-c3ccc(C(=O)NC4CC4)cc3)ccc2n1 [Example 213]	< 0.3	> 20
CCOc1nc(N)nc2ccc(-c3ccc(C(N)=O)cc3)cc12 [Example 214, 4-(2-Amino-4-ethoxy-quinazolin-6-yl)-benzamide]	< 0.3	> 20
Nc1nc(O[C@H]2CCOC2)c2cc(-c3ccc(C(=O)NC4CC4)cc3)ccc2n1 [Example 215, (S)-4-[2-Amino-4-(tetrahydro-furan-3-yloxy)-quinazolin-6-yl]-N-cyclopropyl-benzamide]	< 0.3	> 20
CN(C)CCNC(=O)c1ccc(-c2ccc3nc(N)nc(O[C@H]4CCOC4)c3c2)cc1 [Example 216]	< 0.3	> 20
Nc1nc(O[C@@H]2CCOC2)c2cc(-c3ccc(C(=O)NCCN4CCOCC4)cc3)ccc2n1 [Example 217, (R)-4-[2-Amino-4-(tetrahydro-furan-3-yloxy)-quinazolin-6-yl]-N-(2-morpholin-4-yl-ethyl)-benzamide]	< 0.3	> 20
Nc1nc(O[C@@H]2CCOC2)c2cc(-c3ccc(C(=O)NCCN4CCCC4)cc3)ccc2n1 [Example 218, (R)-4-[2-Amino-4-(tetrahydro-furan-3-yloxy)-quinazolin-6-yl]-N-(2-pyrrolidin-1-yl-ethyl)-benzamide]	< 0.3	< 10
Nc1nc(O[C@@H]2CCOC2)c2cc(-c3ccc(C(=O)NCC(F)(F)F)cc3)ccc2n1 [Example 219, (R)-4-[2-Amino-4-(tetrahydro-furan-3-yloxy)-quinazolin-6-yl]-N-(2,2,2-trifluoro-ethyl)-benzamide]	< 0.3	> 20
Nc1nc(O[C@@H]2CCOC2)c2cc(-c3ccc(C(=O)NCCCN4CCCC4)cc3)ccc2n1 [Example 220, (R)-4-[2-Amino-4-(tetrahydro-furan-3-yloxy)-quinazolin-6-yl]-N-(3-pyrrolidin-1-yl-propyl)-benzamide]	< 0.3	< 10
CC(C)(CN1CCOCC1)NC(=O)c1ccc(-c2ccc3nc(N)nc(O[C@@H]4CCOC4)c3c2)cc1 [Example 222, (R)-4-[2-Amino-4-(tetrahydro-furan-3-yloxy)-quinazolin-6-yl]-N-(1,1-dimethyl-2-morpholin-4-yl-ethyl)-benzamide]	< 0.3	> 20
CC(C)(CN1CCCC1)NC(=O)c1ccc(-c2ccc3nc(N)nc(O[C@@H]4CCOC4)c3c2)cc1 [Example 223, (R)-4-[2-Amino-4-(tetrahydro-furan-3-yloxy)-quinazolin-6-yl]-N-(1,1-dimethyl-2-pyrrolidin-1-yl-ethyl)-benzamide]	< 0.3	< 10
N#CC1(NC(=O)c2ccc(-c3ccc4nc(N)nc(O[C@@H]5CCOC5)c4c3)cc2)CC1 [Example 224, (R)-4-[2-Amino-4-(tetrahydro-furan-3-yloxy)-quinazolin-6-yl]-N-(1-cyano-cyclopropyl)-benzamide]	< 0.3	> 20
CC(C)N1CCC(NC(=O)c2ccc(-c3ccc4nc(N)nc(O[C@@H]5CCOC5)c4c3)cc2)CC1 [Example 225, (R)-4-[2-Amino-4-(tetrahydro-furan-3-yloxy)-quinazolin-6-yl]-N-(1-isopropyl-piperidin-4-yl)-benzamide]	1 to 10	> 20
CN(C)CCCOc1nc(N)nc2ccc(-c3cc4ccccc4o3)cc12 [Example 227, 6-benzofuran-2-yl-4-(3-dimethylaminopropoxy)-quinazolin-2-ylamine]	1 to 10	> 20
CN(C)CCCOc1nc(N)nc2ccc(-c3ccc(Cl)cc3Cl)cc12 [Example 229, 6-(2,4-Dichlorophenyl)-4-(3-dimethylamino-propoxy)-quinazolin-2-ylamine]	1 to 10	> 20
CN(C)CCCOc1nc(N)nc2ccc(-c3cc(F)c(F)c(F)c3)cc12 [Example 230, 4-(3-Dimethylamino-propoxy)-6-(3,4,5-trifluoro-phenyl)-quinazolin-2-ylamine]	1 to 10	> 20
Cc1cc(C)cc(-c2ccc3nc(N)nc(OCCCN(C)C)c3c2)c1 [Example 231, 4-(3-Dimethylamino-propoxy)-6-(3,5-dimethyl-phenyl)-quinazolin-2-ylamine]	1 to 10	> 20

Structure (SMILES)	EC50 (HCV replicon) [µM]	CC50 at 3 days [1] [µM]
CN(C)CCCOc1nc(N)nc2ccc(-c3ccc(Cl)cc3)cc12 [Example 232, 6-(4-Chloro-phenyl)-4-(3-dimethylamino-propoxy)-quinazolin-2-ylamine]	1 to 10	> 20
CN(C)CCCOc1nc(N)nc2ccc(-c3cccc(C(F)(F)F)c3)cc12 [Example 233, 4-(3-Dimethylamino-propoxy)-6-(3-trifluoromethyl-phenyl)-quinazolin-2-ylamine]	1 to 10	> 20
Nc1nc(OCCN2CCOCC2)c2cc(-c3ccc(Cl)c(C(F)(F)F)c3)ccc2n1 [Example 234, 6-(4-Chloro-3-trifluoromethyl-phenyl)-4-(2-morpholin-4-yl-ethoxy)-quinazolin-2-ylamine]	1 to 10	10 to 20
Nc1nc(OCCN2CCOCC2)c2cc(-c3ccc(O)cc3)ccc2n1 [Example 235, 4-[2-Amino-4-(2-morpholin-4-yl-ethoxy)-quinazolin-6-yl]-phenol]	1 to 10	> 20
Nc1nc(OCCN2CCOCC2)c2cc(-c3ccsc3)ccc2n1 [Example 236, 4-(2-Morpholin-4-yl-ethoxy)-6-thiophen-3-yl-quinazolin-2-ylamine]	1 to 10	> 20
Nc1nc(OCCN2CCOCC2)c2cc(-c3cccs3)ccc2n1 [Example 237, 4-(2-Morpholin-4-yl-ethoxy)-6-thiophen-2-yl-quinazolin-2-ylamine]	1 to 10	> 20
Nc1nc(OCCN2CCOCC2)c2cc(-c3cc4ccccc4o3)ccc2n1 [Example 238, 6-Benzofuran-2-yl-4-(2-morpholin-4-yl-ethoxy)-quinazolin-2-ylamine]	1 to 10	10 to 20
Nc1nc(OCCN2CCOCC2)c2cc(-c3ccoc3)ccc2n1 [Example 239, 6-Furan-3-yl-4-(2-morpholin-4-yl-ethoxy)-quinazolin-2-ylamine]	1 to 10	10 to 20
Nc1nc(OCCN2CCOCC2)c2cc(-c3cc4ccccc4s3)ccc2n1 [Example 240, 6-Benzo[b]thiophen-2-yl-4-(2-morpholin-4-yl-ethoxy)-quinazolin-2-ylamine]	1 to 10	> 20
Nc1nc(OCCN2CCOCC2)c2cc(-c3ccccc3C(F)(F)F)ccc2n1 [Example 241, 4-(2-Morpholin-4-yl-ethoxy)-6-(2-trifluoromethyl-phenyl)-quinazolin-2-ylamine]	1 to 10	> 20
Nc1nc(OCCN2CCOCC2)c2cc(-c3cccc(C(F)(F)F)c3)ccc2n1 [Example 242, 4-(2-Morpholin-4-yl-ethoxy)-6-(3-trifluoromethyl-phenyl)-quinazolin-2-ylamine]	1 to 10	10 to 20
Nc1nc(OCCN2CCOCC2)c2cc(-c3cccc(F)c3F)ccc2n1 [Example 243, 6-(2,3-Difluoro-phenyl)-4-(2-morpholin-4-yl-ethoxy)-quinazolin-2-ylamine]	1 to 10	> 20
CC(C)Oc1ncnc2ccc(-c3ccsc3)cc12 [Example 244, 4-isopropoxy-6-thiophen-3-yl-quinazoline]	1 to 10	> 20
CNC(=O)c1ccc(-c2ccc3ncnc(OC(C)C)c3c2)cc1 [Example 245, 4-(4-Isopropoxy-quinazolin-6-yl)-N-methyl-benzamide]	1 to 10	> 20
CC(C)Oc1ncnc2ccc(-c3ccc(F)cc3)cc12 [Example 248, 6-(4-Fluorophenyl)-4-isopropoxy-quinazoline]	1 to 10	> 20
CN(C)CCNC(=O)c1ccc(-c2ccc3nc(NCc4ccc(F)cc4)nc(O[C@H]4CCOC4)c3c2)cc1 [Example 249, (S)-4-(2-(4-fluorobenzylamino)-4-(tetrahydrofuran-3-yloxy)quinazolin-6-yl)-N-(2-(dimethylamino)ethyl)benzamide]	< 0.3	< 10
CCOc1nc(NCc2ccc(S(N)(=O)=O)cc2)nc2ccc(-c3ccc(F)cc3)cc12 [Example 250, 4-{[4-Ethoxy-6-(4-fluoro-phenyl)-quinazolin-2-ylamino]-methyl}-benzenesulfonamide]	1 to 10	< 10
CCOc1nc(NCc2ccc(S(N)(=O)=O)cc2)nc2ccc(-c3ccc(F)c(NS(=O)(=O)C4CC4)c3)cc12 [Example 251, 4-{[6-(3-Cyclopropanesulfonylamino-4-fluoro-phenyl)-4-ethoxy-quinazolin-2-ylamino]-methyl}-benzenesulfonamide]	< 0.3	< 10
CCOc1nc(NCc2ccc(S(N)(=O)=O)cc2)nc2ccc(-c3cccc(S(N)(=O)=O)c3)cc12 [Example 252, 4-{[6-(3-aminosulfonyl-phenyl)-4-ethoxy-quinazolin-2-ylamino]-methyl}-benzenesulfonamide]	< 0.3	< 10
